According to paper PMC10282093, “Structural basis of α1A-adrenergic receptor activation and recognition by an extracellular nanobody” (Nature Communications, 2023):
Values joined by “and” are separate entries in the source; they are usually repeats but may differ in a detail not shown here. Equal entries are not always repeated.

Tests used:
HEK293T cells (mock) = assay: Glo-sensor cAMP assay, mock (negative control); format: cell-based
Description: In brief, […] plasmid, receptor plasmid, and Gsq plasmid were transfected into HEK293T cells. At 24 h after transfection, the cells were switched into a CO2-Independent Medium (Gibco) and incubated with GloSensor^TM cAMP reagent. The mixture was then transferred to a 96-well white plate. The 96-well plate is placed at 37 °C in the dark for 1 h, then placed at room temperature in the dark for 1 h before use. […] The result curves were calculated and fitted by GraphPad Prism 9.

α1DAR = target: T1, α1DAR (Homo sapiens, UniProt P25100); assay: [3H]prazosin radioligand competition binding, Sf9 membranes; conditions: 1 h
T1 construct: made in house; host or cells: Sf9 insect cells (membranes)
T1 sequence (P25100 1-572): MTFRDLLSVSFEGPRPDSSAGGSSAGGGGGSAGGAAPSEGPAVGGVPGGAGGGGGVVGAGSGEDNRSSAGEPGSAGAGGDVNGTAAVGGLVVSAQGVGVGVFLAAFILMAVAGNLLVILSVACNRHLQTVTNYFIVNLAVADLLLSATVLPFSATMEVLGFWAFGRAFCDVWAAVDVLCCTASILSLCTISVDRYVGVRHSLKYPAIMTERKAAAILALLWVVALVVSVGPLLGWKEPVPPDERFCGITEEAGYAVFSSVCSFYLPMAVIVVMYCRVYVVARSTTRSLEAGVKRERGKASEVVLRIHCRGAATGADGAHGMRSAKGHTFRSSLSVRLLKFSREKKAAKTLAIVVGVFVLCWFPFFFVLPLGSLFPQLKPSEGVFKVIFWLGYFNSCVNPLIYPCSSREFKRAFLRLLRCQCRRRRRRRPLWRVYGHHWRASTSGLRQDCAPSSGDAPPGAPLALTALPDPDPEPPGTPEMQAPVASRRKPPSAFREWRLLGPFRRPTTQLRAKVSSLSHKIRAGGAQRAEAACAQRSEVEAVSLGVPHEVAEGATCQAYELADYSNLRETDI
Description: (§1) After centrifugation, the pellet was homogenized in binding buffer and used as the membrane fraction in binding assays. […] Receptors were incubated for 1 h at room temperature with various concentrations of ligand in a total volume of 100 µl. After the reaction, the mixture was trapped on Whatman GF/B glass filters. Bound and free radioligands were separated by washing with ice-cold binding buffer. Radioactivity was measured on a MicroBeta2 liquid scintillation counter (PerkinElmer).

α1AAR [1] = target: T2, α1AAR (Homo sapiens, UniProt P35348); assay: [3H]prazosin radioligand binding, Sf9 membranes
T2 sequence (P35348 1-370): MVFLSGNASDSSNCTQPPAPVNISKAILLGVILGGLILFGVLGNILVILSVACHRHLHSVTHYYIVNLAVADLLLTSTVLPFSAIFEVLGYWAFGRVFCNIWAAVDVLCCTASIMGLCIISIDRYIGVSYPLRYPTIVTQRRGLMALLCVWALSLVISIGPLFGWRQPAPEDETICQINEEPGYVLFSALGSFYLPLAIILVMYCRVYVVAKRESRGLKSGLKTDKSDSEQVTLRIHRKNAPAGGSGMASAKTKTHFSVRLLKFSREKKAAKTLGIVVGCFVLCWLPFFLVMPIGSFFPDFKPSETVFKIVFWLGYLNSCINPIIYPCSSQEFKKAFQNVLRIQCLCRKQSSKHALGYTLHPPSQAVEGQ
Description: as §1

α1AAR [2] = target: T3, α1AAR (Homo sapiens, UniProt P35348); assay: Glo-sensor cAMP signaling assay with engineered Gsq protein in HEK293T cells; conditions: HEK-293T
T3 sequence (P35348 1-466): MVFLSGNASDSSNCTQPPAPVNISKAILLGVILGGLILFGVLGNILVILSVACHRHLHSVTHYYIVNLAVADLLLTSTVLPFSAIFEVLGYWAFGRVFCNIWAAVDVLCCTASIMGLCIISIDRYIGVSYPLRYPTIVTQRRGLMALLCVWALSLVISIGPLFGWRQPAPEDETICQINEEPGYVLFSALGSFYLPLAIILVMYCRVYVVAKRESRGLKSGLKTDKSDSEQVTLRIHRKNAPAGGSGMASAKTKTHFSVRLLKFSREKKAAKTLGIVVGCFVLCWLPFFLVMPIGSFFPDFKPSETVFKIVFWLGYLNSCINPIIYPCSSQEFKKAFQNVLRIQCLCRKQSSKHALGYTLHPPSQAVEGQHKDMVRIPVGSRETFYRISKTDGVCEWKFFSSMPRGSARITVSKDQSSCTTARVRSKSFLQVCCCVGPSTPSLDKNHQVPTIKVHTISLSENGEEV
Description: In brief, pGloSensor™−22F plasmid, receptor plasmid, and Gsq plasmid were transfected into HEK293T cells. At 24 h after transfection, the cells were switched into a CO2-Independent Medium (Gibco) and incubated with GloSensor^TM cAMP reagent. The mixture was then transferred to a 96-well white plate. The 96-well plate is placed at 37 °C in the dark for 1 h, then placed at room temperature in the dark for 1 h before use. […] The result curves were calculated and fitted by GraphPad Prism 9.

α1ARs over α2ARs = conditions: cited from earlier work

Cc1cc(C(C)(C)C)c(O)c(C)c1CC1=NCCN1 [Oxymetazoline, oxymetazoline]
cAMP Glo-sensor signal (Noradrenaline %) (HEK293T cells (mock); Oxy Log[M] -4, listed as Oxy): 20.5576% and 21.072% and 20.3482% | cAMP Glo-sensor signal (Noradrenaline %) (HEK293T cells (mock); Oxy Log[M] -5, listed as Oxy): 16.9742% and 18.9752% and 17.0682% | cAMP Glo-sensor signal (Noradrenaline %) (HEK293T cells (mock); Oxy Log[M] -6, listed as Oxy): 11.7764% and 12.3973% and 9.944% | cAMP Glo-sensor signal (Noradrenaline %) (HEK293T cells (mock); Oxy Log[M] -7, listed as Oxy): 5.984% and 4.961% and 5.326% | cAMP Glo-sensor signal (Noradrenaline %) (HEK293T cells (mock); Oxy Log[M] -8, listed as Oxy): 5.537% and 5.0478% and 4.209% | cAMP Glo-sensor signal (Noradrenaline %) (HEK293T cells (mock); Oxy Log[M] -9, listed as Oxy): 5.27% and 4.932% and 5.142% | cAMP Glo-sensor signal (Noradrenaline %) (HEK293T cells (mock); Oxy Log[M] -10, listed as Oxy): 5.3547% and 4.562% and 4.147% | cAMP Glo-sensor signal (Noradrenaline %) (HEK293T cells (mock); Oxy Log[M] -11, listed as Oxy): 5.371% and 4.924% and 4.109% | remaining binding at 100 µM (α1DAR; oxymetazoline Log[M] -4): 40% | remaining binding at 10 µM (α1DAR; oxymetazoline Log[M] -5): 78% | remaining binding at 1 µM (α1DAR; oxymetazoline Log[M] -6): 104% | remaining binding at 0.01 µM (α1DAR; oxymetazoline Log[M] -8): 101% | remaining binding at 0.001 µM (α1DAR; oxymetazoline Log[M] -9): 85.5% | remaining binding at 0.0001 µM (α1DAR; oxymetazoline Log[M] -10): 96.6% | [3H]prazosin binding (α1AAR [1]; Fig 1c, oxymetazoline Log[M] -4): 10.9281% and 8.737% and 2.765% | [3H]prazosin binding (α1AAR [1]; Fig 1c, oxymetazoline Log[M] -5): 28.5329% and 15.8053% and 21.6214% | [3H]prazosin binding (α1AAR [1]; Fig 1c, oxymetazoline Log[M] -6): 48.3547% and 40.7911% and 47.5462% | [3H]prazosin binding (α1AAR [1]; Fig 1c, oxymetazoline Log[M] -7): 71.541% and 85.4423% and 88.1547% | [3H]prazosin binding (α1AAR [1]; Fig 1c, oxymetazoline Log[M] -8): 80.5129% and 95.3793% and 78.3743% | [3H]prazosin binding (α1AAR [1]; Fig 1c, oxymetazoline Log[M] -9): 85.0772% and 90.4238% and 92.4582% | [3H]prazosin binding (α1AAR [1]; Fig 1c, oxymetazoline Log[M] -10): 89.85% and 99.1089% and 88.2591% | [3H]prazosin binding (α1AAR [1]; SupFig 3a, oxymetazoline Log[M] -4): 12.1047% and 12.5905% and 4.0484% | [3H]prazosin binding (α1AAR [1]; SupFig 3a, oxymetazoline Log[M] -5): 17.0033% and 16.477% and 26.9623% | [3H]prazosin binding (α1AAR [1]; SupFig 3a, oxymetazoline Log[M] -6): 53.0745% and 43.3179% and 35.5045% | [3H]prazosin binding (α1AAR [1]; SupFig 3a, oxymetazoline Log[M] -7): 77.4054% and 89.6316% and 82.5874% | [3H]prazosin binding (α1AAR [1]; SupFig 3a, oxymetazoline Log[M] -8): 97.364% and 96.109% and 85.3403% | [3H]prazosin binding (α1AAR [1]; SupFig 3a, oxymetazoline Log[M] -9): 100.805% and 102.506% and 100.765% | [3H]prazosin binding (α1AAR [1]; SupFig 3a, oxymetazoline Log[M] -10): 92.5464% and 102.06% and 94.2468% | [3H]prazosin binding (α1AAR [1]; SupFig 3a, oxymetazoline Log[M] -11): 99.0644% and 106.675% and 101.331% | [3H]prazosin binding (α1AAR [1]; SupFig 5b, Oxy Log[M] -4, listed as Oxy): 3.711% and 5.398% and 5.024% | [3H]prazosin binding (α1AAR [1]; SupFig 5b, Oxy Log[M] -5, listed as Oxy): 10.3036% and 9.182% and 6.784% | [3H]prazosin binding (α1AAR [1]; SupFig 5b, Oxy Log[M] -6, listed as Oxy): 25.9506% and 41.5063% and 33.8379% | [3H]prazosin binding (α1AAR [1]; SupFig 5b, Oxy Log[M] -7, listed as Oxy): 92.3589% and 77.9429% and 95.5776% | [3H]prazosin binding (α1AAR [1]; SupFig 5b, Oxy Log[M] -8, listed as Oxy): 101.851% and 78.107% and 77.5873% | [3H]prazosin binding (α1AAR [1]; SupFig 5b, Oxy Log[M] -9, listed as Oxy): 102.225% and 74.633% and 114.735% | [3H]prazosin binding (α1AAR [1]; SupFig 5b, Oxy Log[M] -10, listed as Oxy): 96.3983% and 104.267% and 110.313% | [3H]prazosin binding (α1AAR [1]; SupFig 5b, Oxy Log[M] -11, listed as Oxy): 110.176% and 107.431% and 115.738% | [3H]prazosin binding (α1AAR [1]; oxymetazoline Log[M] -4, + 5 μM Nb29): 2.395% and 8.488% and 7.551% | [3H]prazosin binding (α1AAR [1]; oxymetazoline Log[M] -5, + 5 μM Nb29): 13.6695% and 16.4815% and 14.4506% | [3H]prazosin binding (α1AAR [1]; oxymetazoline Log[M] -6, + 5 μM Nb29): 33.0932% and 34.9679% and 29.0314% | [3H]prazosin binding (α1AAR [1]; oxymetazoline Log[M] -7, + 5 μM Nb29): 67.0717% and 63.0359% and 61.005% | [3H]prazosin binding (α1AAR [1]; oxymetazoline Log[M] -8, + 5 μM Nb29): 88.2659% and 86.6777% and 81.6265% | [3H]prazosin binding (α1AAR [1]; oxymetazoline Log[M] -9, + 5 μM Nb29): 85.0373% and 101.154% and 98.9412% | [3H]prazosin binding (α1AAR [1]; oxymetazoline Log[M] -10, + 5 μM Nb29): 98.863% and 104.175% and 100.087% | activation at 100 µM (α1AAR [2]; read-out: α1AAR activation (Noradrenaline %), Oxy Log[M] -4): 79.5% | activation at 10 µM (α1AAR [2]; read-out: α1AAR activation (Noradrenaline %), Oxy Log[M] -5): 82.8% | activation at 1 µM (α1AAR [2]; read-out: α1AAR activation (Noradrenaline %), Oxy Log[M] -6): 89.5% | activation at 0.1 µM (α1AAR [2]; read-out: α1AAR activation (Noradrenaline %), Oxy Log[M] -7): 76.5% | activation at 0.01 µM (α1AAR [2]; read-out: α1AAR activation (Noradrenaline %), Oxy Log[M] -8): 64.3% | activation at 0.001 µM (α1AAR [2]; read-out: α1AAR activation (Noradrenaline %), Oxy Log[M] -9): 30.7%

(+)-cyclazosin
selectivity for α1ARs over α2ARs (α1ARs over α2ARs): 100–1000 fold | subtype preference among α1ARs (α1ARs over α2ARs): slight preference for α1BAR over α1AAR
